Source: patent US20080045489A1, “3,4-DI-SUBSTITUTED CYCLOBUTENE-1,2-DIONES AS CXC-CHEMOKINE RECEPTOR LIGANDS” (priority 2006, published 2008)

Target: T1, CXCR2 (Homo sapiens, UniProt P25025)
T1 construct: expressed in transfected cells; host or cells: Ba/F3 (Baf3) cells; membranes, clone designation [Hi70]
T1 sequence (P25025 1-360): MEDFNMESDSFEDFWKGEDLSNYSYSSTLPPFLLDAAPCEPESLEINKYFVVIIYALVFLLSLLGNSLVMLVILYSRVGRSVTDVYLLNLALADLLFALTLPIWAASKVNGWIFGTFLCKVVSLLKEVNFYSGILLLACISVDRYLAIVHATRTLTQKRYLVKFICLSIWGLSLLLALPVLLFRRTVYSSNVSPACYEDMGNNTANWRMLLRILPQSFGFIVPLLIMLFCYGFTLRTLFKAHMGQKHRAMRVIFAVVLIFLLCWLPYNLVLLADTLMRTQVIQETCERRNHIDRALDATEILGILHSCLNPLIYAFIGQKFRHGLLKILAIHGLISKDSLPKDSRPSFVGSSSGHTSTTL
Assay: [35S]GTPγS Binding Assay: inhibition of agonist (GROα) stimulated [35S]GTPγS exchange in membranes expressing CXCR2
Assay type: biochemical
Conditions: 1 h; 3 nM compound; Baf3/hCXCR2 membranes; percent inhibition at highest chemokine (hGROα) concentration 500 nM; control (no compound) = 0%, standard = 100%; read-out: % Inhibition GTPyS
Experimental: [^35S]GTPγS Binding Assay:
This assay measures the inhibition of agonist (GROα) stimulated guanosine 5′-[γ-^35S]triphospate ([^35S]GTPγS, triethylammonium salt) exchange in membranes expressing CXCR2.
For each assay point, 2 μg of membrane (Baf3/hCXCR22 [Hi70]), 200 μg wheat germ agglutinin-coated SPA beads (WGA-SPA; Amersham, Arlington Heights, Ill.), 3 μM guanosine 5′-diphosphate (GDP) ±3 nM compound are pre-incubated for 3 hrs at room temperature (mixing by inversion) in SPA binding buffer (50 mM TRIS-HCL, 1 mM CaCl2, 5 mM MgCl2, 50 mM NaCl, 0.002% NaN3, 0.1% BSA, 10 μg/ml saponin, pH=7.6).
The bead, membrane, compound mixture is transferred to a 96-well Isoplate (Wallac, Gaithersburg, Md.) and pre-incubated for 60 min with concentrations of chemokine (hGROα) ranging from 500 nM to 1 nM with a no chemokine sample serving as a control. The GTPγS exchange reaction was initiated by the addition of 0.1 nM [^35S]GTPγS and the incubation for 60 min at room temperature. Assay is terminated by the addition of 10 μl “Stop Solution” (0.5M Na-EDTA; 10 μM GDP).
Membrane-bound [^35S]GTPγS was measured using a 1450 Microbeta Trilux counter (Wallac, Gaithersburg, Md.). Data is calculated as percent inhibition at the highest chemokine concentration (500 nM). The control (No compound addition), which is set to 0%, versus the % inhibition of the standard, which is set at 100%. The standard used is: [drawing 19]

inhibition at 0.003 µM | Compound
109% | CC[C@@H](Nc1c(Nc2cccc(C(=O)N(C)C)c2O)c(=O)c1=O)c1cc(C(C)C)c(Br)o1 [Compound 10, 3-[[2-[[1(R)-[5-BROMO-4-(1-METHYL- ETHYL)-2-FURANYL]PROPYL]AMINO]- 3,4,-DIOXO-1-CYCLOBUTEN-1-YL]- AMINO]-2-HYDROXY-N,N-DIMETHYL- BENZAMIDE]
105% | CC[C@@H](Nc1c(Nc2cccc(C(=O)N(C)C)c2O)c(=O)c1=O)c1cc(C(C)C)c(C2CC2)o1 [Compound 13, 3-[[2-[[1(R)-[5-CYCLOPROPYL-4-(1- METHYLETHYL)-2-FURANYL]PROPYL]- AMINO]-3,4-DIOXO-1-CYCLOBUTEN-1- YL]AMINO]-2-HYDROXY-N,N- DIMETHYLBENZAMIDE]
99% | CCc1oc([C@@H](CC)Nc2c(Nc3cccc(C(=O)N(C)C)c3O)c(=O)c2=O)cc1Br [Compound 18, 3-[[2-[[1(R)-(4-BROMO-5-ETHYL-2- FURANYL)PROPYL]AMINO]-3,4-DIOXO- 1-CYCLOBUTEN-1-YL]AMINO]-2- HYDROXY-N,N-DIMETHYLBENZAMIDE]
112% | CC[C@@H](Nc1c(Nc2cccc(C(=O)N(C)C)c2O)c(=O)c1=O)c1cc(C(C)C)c(C)o1 [Compound 8, 2-HYDROXY-N,N-DIMETHYL-3-[[2- [[1(R)-[5-METHYL-4-(1-METHYLETHYL)- 2-FURANYL]PROPYL]AMINO]-3,4- DIOXO-1-CYCLOBUTEN-1-YL]AMINO]- BENZAMIDE]
122% | CC[C@@H](Nc1c(Nc2cccc(C(=O)N(C)C)c2O)c(=O)c1=O)c1cc(Br)c(C)o1 [Compound 3, 3-[[2-[[1(R)-(4-BROMO-5-METHYL-2- FURANYL)PROPYL]AMINO]-3,4-DIOXO- 1-CYCLOBUTEN-1-YL]AMINO]-2- HYDROXY-N,N-DIMETHYLBENZAMIDE]
103% | CC[C@@H](Nc1c(Nc2cccc(C(=O)N3CCOCC3)c2O)c(=O)c1=O)c1cc(C2CC2)c(C)o1 [Compound 14, 4-[3-[[2-[[1(R)-(4-CYCLOPROPYL-5- METHYL-2-FURANYL)PROPYL]AMINO]- 3,4-DIOXO-1-CYCLOBUTEN-1-YL]- AMINO]-2-HYDROXYBENZOYL]- MORPHOLINE]
109% | CC[C@@H](Nc1c(Nc2cccc(C(=O)N(C)C)c2O)c(=O)c1=O)c1cc(C2CCCC2)c(C)o1 [Compound 11, 3-[[2-[[1(R)-(4-CYCLOPENTYL-5- METHYL-2-FURANYL)PROPYL]AMINO]- 3,4-DIOXO-1-CYCLOBUTEN-1-YL]- AMINO]-2-HYDROXY-N,N-DIMETHYL- BENZAMIDE]
107% | CC[C@@H](Nc1c(Nc2cccc(C(=O)N(C)C)c2O)c(=O)c1=O)c1cc(C2CC2)c(C)o1 [Compound 12, 3-[[2-[[1(R)-(4-CYCLOPROPYL-5- METHYL-2-FURANYL)PROPYL]AMINO]- 3,4-DIOXO-1-CYCLOBUTEN-1-YL]- AMINO]-2-HYDROXY-N,N-DIMETHYL- BENZAMIDE]
114% | CC[C@@H](Nc1c(Nc2cccc(C(=O)N3CCOCC3)c2O)c(=O)c1=O)c1cc(Br)c(C)o1 [Compound 7, 4-[3-[[2-[[1(R)-(4-BROMO-5-METHYL-2- FURANYL)PROPYL]AMINO]-3,4-DIOXO- 1-CYCLOBUTEN-1-YL]AMINO]-2- HYDROXYBENZOYL]MORPHOLINE]
137% | CC[C@@H](Nc1c(Nc2cccc(C(=O)N3CCOCC3)c2O)c(=O)c1=O)c1cc(C(C)C)c(C)o1 [Compound 1, 4-[2-HYDROXY-3-[[2-[[1(R)-[5-METHYL- 4-(1-METHYLETHYL)-2-FURANYL]- PROPYL]AMINO]-3,4-DIOXO-1- CYCLOBUTEN-1-YL]AMINO]BENZOYL]- MORPHOLINE]
100% | CC[C@@H](Nc1c(Nc2cccc(C(=O)N3CCC3)c2O)c(=O)c1=O)c1cc(C(C)C)c(C)o1 [Compound 17, 1-[2-HYDROXY-3-[[2-[[1(R)-[5-METHYL- 4-(1-METHYLETHYL)-2-FURANYL]- PROPYL]AMINO]-3,4-DIOXO-1- CYCLOBUTEN-1-YL]AMINO]- BENZOYL]AZETIDINE]
115% | CC[C@@H](Nc1c(Nc2cccc(C(=O)N3CCC3)c2O)c(=O)c1=O)c1cc(C2CC2)c(C)o1 [Compound 6, 1-[3-[[2-[[1(R)-(4-CYCLOPROPYL-5- METHYL-2-FURANYL)PROPYL]AMINO]- 3,4-DIOXO-1-CYCLOBUTEN-1- YL]AMINO]-2-HYDROXYBENZOYL]- AZETIDINE]
119% | CC[C@@H](Nc1c(Nc2cccc(C(=O)N3CC[C@H](O)C3)c2O)c(=O)c1=O)c1cc(Br)c(C)o1 [Compound 5, 1-[3-[[2-[[1(R)-(4-BROMO-5-METHYL-2- FURANYL)PROPYL]AMINO]-3,4-DIOXO- 1-CYCLOBUTEN-1-YL]AMINO]-2- HYDROXYBENZOYL]-3(S)- PYRROLIDINOL]
110% | CC[C@@H](Nc1c(Nc2cccc(C(=O)N3CCCC3)c2O)c(=O)c1=O)c1cc(Br)c(C)o1 [Compound 9, 1-[3-[[2-[[1(R)-(4-BROMO-5-METHYL-2- FURANYL)PROPYL]AMINO]-3,4-DIOXO- 1-CYCLOBUTEN-1-YL]AMINO]-2- HYDROXYBENZOYL]PYRROLIDINE]
132% | CC[C@@H](Nc1c(Nc2cccc(C(=O)N3CCCC3)c2O)c(=O)c1=O)c1cc(C(C)C)c(C)o1 [Compound 2, 1-[2-HYDROXY-3-[[2-[[1(R)-[5-METHYL- 4-(1-METHYLETHYL)-2-FURANLY]- PROPYL]AMINO]-3,4-DIOXO-1- CYCLOBUTEN-1-YL]AMINO]-BENZOYL]PYRROLIDINE]
103% | CCc1oc([C@@H](CC)Nc2c(Nc3cccc(C(=O)N4CCC4)c3O)c(=O)c2=O)cc1Br [Compound 15, 1-[3-[[2-[[1(R)-(4-BROMO-5-ETHYL-2- FURANYL)PROPYL]AMINO]-3,4-DIOXO- 1-CYCLOBUTEN-1-YL]AMINO]-2- HYDROXYBENZOYL]AZETIDINE]
101% | CC[C@@H](Nc1c(Nc2cccc(C(=O)N3CC[C@@H](O)C3)c2O)c(=O)c1=O)c1cc(Br)c(C)o1 [Compound 16, 1-[3-[[2-[[1(R)-(4-BROMO-5-METHYL-2- FURANYL)PROPYL]AMINO]-3,4-DIOXO- 1-CYCLOBUTEN-1-YL]AMINO]-2- HYDROXYBENZOYL]-3(R)- PYRROLIDINOL]

Compound | inhibition at 0.003 µM
CC[C@@H](Nc1c(Nc2cccc(C(=O)N(C)C)c2O)c(=O)c1=O)c1cc(Cl)c(C)o1 [Compound 4, 3-[[2-[[1(R)-(4-CHLORO-5-METHYL-2- FURANYL)PROPYL]AMINO]-3,4-DIOXO- 1-CYCLOBUTEN-1-YL]AMINO]-2- HYDROXY-N,N-DIMETHYLBENZAMIDE] | 120%
